{"source": "patent US20140213567A1", "about": "“TAZOBACTAM ARGININE ANTIBIOTIC COMPOSITIONS” (Cubist Pharmaceuticals, Inc., priority 2012, published 2014)", "assay": "Hygroscopicity of solid form", "format": "physicochemical", "conditions": "relative to amorphous tazobactam arginine and amorphous tazobactam sodium"}
{"smiles": "C[C@]1(Cn2ccnn2)[C@H](C(=O)O)N2C(=O)CC2S1(=O)=O", "note": "(stereo partly shown) [Tazobactam arginine polymorph Ia, Tazobactam Arginine]", "values": [{"measurement": "hygroscopicity", "value": "low hygroscopicity"}]}
